System: CA20948 Tumor Model (neuroendocrine tumor cells)
Assay: In vivo therapy of PRRT +/- Olaparib, CA20948 tumor model
Design: species or system BALB-c immunocompromised mice
Description: FIG. 1 : In vivo therapy of PRRT +/− Olaparib. The FIG. 1A presents the tumor volume after injection in the presence of the vehicle (square), olaparib alone (full circle), PRRT alone (empty circle) or in combination with PARP inhibitor (triangle). The survival proportions are also shown in FIG. 1B after injection in the presence of the vehicle, olaparib alone, PRRT alone or in combination with PARP inhibitor.
Combination therapies using CA20948 Tumor Model
We have xenografted BALB-c immunocompromised mice with neuroendocrine tumor cells. To increase the window of opportunity, we have started PARP inhibitor administration two days prior to PRRT injection for in total 14 days.

## O=C(c1cc(Cc2n[nH]c(=O)c3ccccc23)ccc1F)N1CCN(C(=O)C2CC2)CC1 [olaparib, Olaparib]
Compared to vehicle
  effect on survival: No effect
  effect on tumor growth: No effect

## Lutetium (177Lu) oxodotreotide [PRRT]
PRRT versus PRRT+olaparib groups
  speed of tumor regrowth: the same in both groups
After injection, xenografted mice, PARP inhibitor started two days prior to PRRT injection, in total 14 days
  start of tumor shrinkage: 3 days
